# In patent US9573911B2, “Diphosphate mimetics and uses thereof” (President and Fellows of Harvard College, priority 2011, dated 2017):
# Read-outs that look alike come from different tables or passages of the source.
# Legend:
# OGT = biological target: T1, OGT (Homo sapiens, UniProt O15294); experiment: IC50 assay, OGT peptide-capture assay; assay type: biochemical
# T1 construct: hOGT4.5 construct (spanning residues 313-1031 based on the numbering of the full length human protein); made in house
# T1 sequence (O15294 313-1031 isoform O15294-3): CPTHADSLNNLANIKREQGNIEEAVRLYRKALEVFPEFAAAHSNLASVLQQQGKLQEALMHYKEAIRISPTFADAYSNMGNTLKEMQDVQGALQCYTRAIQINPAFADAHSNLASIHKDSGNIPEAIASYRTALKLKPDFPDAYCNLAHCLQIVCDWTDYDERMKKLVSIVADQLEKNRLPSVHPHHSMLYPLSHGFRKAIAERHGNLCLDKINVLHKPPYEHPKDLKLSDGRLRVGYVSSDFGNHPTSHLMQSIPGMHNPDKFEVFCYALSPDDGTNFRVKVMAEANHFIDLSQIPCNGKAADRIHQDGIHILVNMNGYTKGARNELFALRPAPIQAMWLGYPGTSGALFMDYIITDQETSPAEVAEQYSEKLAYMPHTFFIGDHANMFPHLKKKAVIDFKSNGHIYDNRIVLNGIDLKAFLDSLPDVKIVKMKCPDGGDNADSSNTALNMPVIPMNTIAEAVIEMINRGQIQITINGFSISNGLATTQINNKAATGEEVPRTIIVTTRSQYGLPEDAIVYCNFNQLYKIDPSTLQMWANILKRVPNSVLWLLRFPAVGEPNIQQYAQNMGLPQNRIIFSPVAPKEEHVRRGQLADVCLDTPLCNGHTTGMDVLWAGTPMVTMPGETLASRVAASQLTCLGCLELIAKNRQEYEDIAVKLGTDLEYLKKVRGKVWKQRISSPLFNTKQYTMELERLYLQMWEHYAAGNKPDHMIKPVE
# Description: IC50 Assay of Thiocarbamate to OGT.
# Enzyme activity was tested with the peptide-capture assay in the presence of different concentrations of each compound as previously reported (J. Am. Chem. Soc. 2005, 127, 14588-14589).
# MCF-10A ErbB2 cells = experiment: Western blot of BZX-treated human breast cancer cells (O-GlcNAcylation); assay type: cell-based; details: 200 μM
# Description: Western Blot of BZX-Treated Human Breast Cancer Cells MCF-10A ErbB2 cells were obtained from Joan Brugge's lab at Harvard Medical School (Boston, Mass.). Cells were maintained in DMEM/F12 (Invitrogen) supplemented with 5% horse serum (Invitrogen), 20 ng/ml EGF (Peprotech), 10 μg/ml insulin (Sigma), 100 ng/ml cholera toxin (Sigma), […] hydrocortisone (Sigma), 50 U/ml penicillin and 50 μg/ml streptomycin (Invitrogen). When cells were grown to 70% confluence, old growth medium was removed. Cells were rinsed twice with PBS, and were grown in glucose starvation medium (DMEM-no glucose; Invitrogen) supplemented with 1% horse serum, 50 U/ml penicillin and 50 μg/ml streptomycin) in the absence (control) and presence of (2) (200 μM) for 4 h. PUGNAc (100 μM, Sigma) and glucosamine (2 mM, EMD) were added to the cells and incubated for another 3 h. Cell lysates from 2−5×10^6 cells were prepared in M-PER mammalian protein extraction reagent (Pierce) supplemented with protease inhibitor cocktail (Sigma). Lysates were cleared by centrifugation at 16,000 g for 10 min at 4° C. and analyzed by SDS-PAGE. Proteins were transferred to a nitrocellulose membrane (Bio-Rad Laboratories) and O-GlcNAcylation was detected with anti-O-GlcNAc antibody (CTD 110.6, Sigma, used at 1:5,000) and a secondary anti-mouse IgM-HRP antibody (Pierce, used at 1:20,000). Western Blot of BZX Inhibitor Treated Cell Lysates
# MAPKAPK2 = biological target: T2, MAPKAPK2 (Homo sapiens, UniProt P49137); experiment: Further kinase screen, Invitrogen Z'-LYTE; assay type: biochemical; details: Table 3
# T2 construct: purchased Invitrogen
# T2 sequence (P49137 whole entry): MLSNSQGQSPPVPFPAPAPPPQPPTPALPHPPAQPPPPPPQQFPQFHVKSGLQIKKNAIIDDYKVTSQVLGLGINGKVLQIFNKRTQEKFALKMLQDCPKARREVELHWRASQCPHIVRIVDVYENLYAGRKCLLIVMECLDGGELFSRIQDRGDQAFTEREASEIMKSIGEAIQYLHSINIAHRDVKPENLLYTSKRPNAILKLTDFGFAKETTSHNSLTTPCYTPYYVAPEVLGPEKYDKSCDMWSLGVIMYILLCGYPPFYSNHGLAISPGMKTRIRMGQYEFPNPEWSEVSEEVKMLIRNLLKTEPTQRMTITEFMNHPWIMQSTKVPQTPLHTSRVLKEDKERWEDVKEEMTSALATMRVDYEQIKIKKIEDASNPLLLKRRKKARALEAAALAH
# Description: (§1) Kinase profiling was conducted using Invitrogen Z'-LYTE screening protocol and assay conditions found at www.invitrogen.com. Compound (2) inhibited PLK1 completely at 5 μM.
# (§2) A further kinase screen was performed on Compounds (2), (4A), and (4B) using the assay described above.
# ADRBK1 (GRK2) = biological target: T3, ADRBK1 (GRK2) (Homo sapiens, UniProt P25098); experiment: Kinase profiling, Invitrogen Z'-LYTE; assay type: biochemical
# T3 construct: purchased Invitrogen
# T3 sequence (P25098 1-689): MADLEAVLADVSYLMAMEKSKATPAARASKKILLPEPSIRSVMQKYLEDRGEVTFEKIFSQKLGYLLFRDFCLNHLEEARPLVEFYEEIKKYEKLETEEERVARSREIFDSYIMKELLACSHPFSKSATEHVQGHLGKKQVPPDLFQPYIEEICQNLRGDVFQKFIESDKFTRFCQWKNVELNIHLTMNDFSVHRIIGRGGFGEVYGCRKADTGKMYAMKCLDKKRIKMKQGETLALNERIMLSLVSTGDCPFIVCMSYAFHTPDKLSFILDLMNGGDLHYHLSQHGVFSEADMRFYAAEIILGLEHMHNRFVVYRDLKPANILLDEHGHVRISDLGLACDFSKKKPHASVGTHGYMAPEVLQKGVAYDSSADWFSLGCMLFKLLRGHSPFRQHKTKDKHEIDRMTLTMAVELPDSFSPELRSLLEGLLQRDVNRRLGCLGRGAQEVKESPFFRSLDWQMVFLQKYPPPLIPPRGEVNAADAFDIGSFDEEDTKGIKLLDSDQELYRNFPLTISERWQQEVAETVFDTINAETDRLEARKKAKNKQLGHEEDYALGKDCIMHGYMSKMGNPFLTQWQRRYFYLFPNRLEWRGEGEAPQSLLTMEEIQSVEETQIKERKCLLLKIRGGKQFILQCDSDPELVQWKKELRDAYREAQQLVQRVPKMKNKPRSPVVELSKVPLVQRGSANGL
# Description: as §1, §2
# PLK1 = biological target: T4, PLK1 (Homo sapiens, UniProt P53350); experiment: Kinase profiling, Invitrogen Z'-LYTE; assay type: biochemical; details: for inhibition at 5 µM / % Inhibition Point 1 / % Inhibition Point 2 / % Inhibition mean: PLK1; for inhibition at 5 µM: Table 2; for % Inhibition Point 1 / % Inhibition Point 2 / % Inhibition mean: Table 3 further screen
# T4 construct: purchased Invitrogen
# T4 sequence (P53350 whole entry): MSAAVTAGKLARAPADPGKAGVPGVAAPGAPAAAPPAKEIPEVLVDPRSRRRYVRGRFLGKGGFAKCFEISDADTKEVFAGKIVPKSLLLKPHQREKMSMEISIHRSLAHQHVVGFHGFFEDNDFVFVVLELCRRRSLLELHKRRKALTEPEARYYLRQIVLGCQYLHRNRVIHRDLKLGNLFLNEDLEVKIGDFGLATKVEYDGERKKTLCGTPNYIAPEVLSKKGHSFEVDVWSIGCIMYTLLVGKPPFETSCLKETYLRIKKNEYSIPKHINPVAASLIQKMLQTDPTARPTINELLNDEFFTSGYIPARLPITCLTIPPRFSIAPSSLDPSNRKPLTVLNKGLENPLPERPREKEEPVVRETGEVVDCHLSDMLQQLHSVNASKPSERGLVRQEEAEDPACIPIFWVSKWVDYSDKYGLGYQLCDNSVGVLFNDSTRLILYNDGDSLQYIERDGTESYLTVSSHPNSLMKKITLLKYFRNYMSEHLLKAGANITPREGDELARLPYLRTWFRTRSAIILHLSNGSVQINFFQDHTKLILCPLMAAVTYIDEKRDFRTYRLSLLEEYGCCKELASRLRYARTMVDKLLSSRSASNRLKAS
# Description: as §1, §2
# MARK3 = biological target: T5, MARK3 (Homo sapiens, UniProt P27448); experiment: Further kinase screen, Invitrogen Z'-LYTE; assay type: biochemical; details: Table 3
# T5 construct: purchased Invitrogen
# T5 sequence (P27448 whole entry): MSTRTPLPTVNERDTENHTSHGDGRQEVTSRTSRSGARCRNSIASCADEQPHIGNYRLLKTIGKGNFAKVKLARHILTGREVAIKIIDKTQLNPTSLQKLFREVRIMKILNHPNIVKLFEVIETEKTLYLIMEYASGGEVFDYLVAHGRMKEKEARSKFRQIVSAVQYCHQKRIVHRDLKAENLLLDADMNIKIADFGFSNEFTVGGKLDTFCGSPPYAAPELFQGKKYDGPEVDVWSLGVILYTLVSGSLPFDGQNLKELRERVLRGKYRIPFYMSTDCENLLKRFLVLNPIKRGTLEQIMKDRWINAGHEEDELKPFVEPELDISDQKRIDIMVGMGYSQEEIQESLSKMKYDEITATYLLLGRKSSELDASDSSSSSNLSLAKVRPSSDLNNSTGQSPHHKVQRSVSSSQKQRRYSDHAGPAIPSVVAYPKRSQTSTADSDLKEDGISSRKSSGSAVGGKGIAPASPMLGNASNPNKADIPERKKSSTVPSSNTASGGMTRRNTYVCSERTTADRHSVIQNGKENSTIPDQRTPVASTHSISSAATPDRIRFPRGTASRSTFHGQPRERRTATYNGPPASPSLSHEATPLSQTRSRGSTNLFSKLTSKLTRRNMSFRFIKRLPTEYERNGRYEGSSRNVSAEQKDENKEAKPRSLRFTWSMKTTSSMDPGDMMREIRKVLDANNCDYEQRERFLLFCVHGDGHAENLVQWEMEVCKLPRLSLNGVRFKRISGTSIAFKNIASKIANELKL
# Description: as §1, §2
# [1] = peptide-capture assay, different concentrations of each compound, read-out: IC50 Values
SMILES,IC50 (OGT; [1]) [µM],% Inhibition Point 1 (MAPKAPK2) [%],% Inhibition Point 2 (MAPKAPK2) [%],% Inhibition mean (MAPKAPK2) [%],% Inhibition Point 1 (ADRBK1 (GRK2); Table 3 further screen) [%],% Inhibition Point 2 (ADRBK1 (GRK2); Table 3 further screen) [%],% Inhibition mean (ADRBK1 (GRK2); Table 3 further screen) [%],% Inhibition Point 1 (PLK1) [%],% Inhibition Point 2 (PLK1) [%],% Inhibition mean (PLK1) [%],% Inhibition Point 1 (MARK3) [%],% Inhibition Point 2 (MARK3) [%],% Inhibition mean (MARK3) [%],other results
COc1ccc(OC(=O)n2c(=O)oc3cc(C(C)=O)ccc32)cc1 [Compound 2],2,0,−10,−5,4,7,5,101,101,101,,,,"IC50 (OGT; read-out: apparent IC50): 1.6 ± 1.1 µM; inhibition of O-GlcNAcylation in cells (MCF-10A ErbB2 cells): inhibits global O-GlcNAcylation in cells; % Inhibition Point 1 (ADRBK1 (GRK2); Table 2): 2%; % Inhibition Point 2 (ADRBK1 (GRK2); Table 2): 5%; % Inhibition mean (ADRBK1 (GRK2); Table 2): 4%; PLK1 inhibition (PLK1; 5 μM): completely; inhibition at 5 µM (PLK1; 5 μM, read-out: % Inhibition Point 1): 104%; inhibition at 5 µM (PLK1; 5 μM, read-out: % Inhibition Point 2): 104%; inhibition at 5 µM (PLK1; 5 μM, read-out: % Inhibition mean): 104%"
COc1ccc(OC(=S)n2c(=O)oc3cc(C(C)=O)ccc32)cc1 [Compound 4A],14,48,53,51,3,7,5,70,65,68,8,12,10,
COc1ccc(OC(=O)n2c(=S)oc3cc(C(C)=O)ccc32)cc1 [Compound 4B],~100,90,90,90,7,6,7,98,101,100,34,36,35,
